Each structure is given as a SMILES string. Where “and” joins values, the source holds several entries; their conditions need not be identical. Equal values may be shown once. Inconclusive results and toxic doses are left out.

The experiment deals with P388 leukemia ip, CD2F1 mice, survival T/C. Briefly: NCI In Vivo Anticancer Drug Screen. Data for tumor model P388 Leukemia (intraperitoneal) in CD2F1 (CDF1) mice. Particulars: endpoint: median survival time, higher = longer survival. An outline of the steps: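 Mice carrying the transplanted tumor received test compound or vehicle. Survival was recorded in each group, and the value is the treated-group measurement divided by that of the vehicle-treated control group.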

Setting [1] is: dose: 50.0 mg/kg/injection, schedule: Q01DX005 (ip), vehicle: saline with Tween-80.
Setting [2] is: dose: 100.0 mg/kg/injection, schedule: Q01DX005 (ip), vehicle: saline with Tween-80.
[3] abbreviates: dose: 200.0 mg/kg/injection, schedule: Q01DX005 (ip), vehicle: saline with Tween-80.
[4] abbreviates: dose: 50.0 mg/kg/injection, schedule: Q01DX005 (ip), vehicle: Klucel (hydroxypropylcellulose) (HPC).
Setting [5] is: dose: 100.0 mg/kg/injection, schedule: Q01DX005 (ip), vehicle: Klucel (hydroxypropylcellulose) (HPC).
[6] abbreviates: dose: 200.0 mg/kg/injection, schedule: Q01DX005 (ip), vehicle: Klucel (hydroxypropylcellulose) (HPC).
Setting [7] is: dose: 100.0 mg/kg/injection, schedule: Q01DX001 (ip), vehicle: saline with Tween-80.
The mark [8] stands for this setting: dose: 200.0 mg/kg/injection, schedule: Q01DX001 (ip), vehicle: saline with Tween-80.
The mark [9] stands for this setting: dose: 400.0 mg/kg/injection, schedule: Q01DX001 (ip), vehicle: saline with Tween-80.
The mark [10] stands for this setting: dose: 50.0 mg/kg/injection, schedule: Q01DX009 (ip), vehicle: other.
Setting [11] is: dose: 100.0 mg/kg/injection, schedule: Q01DX009 (ip), vehicle: other.
[12] abbreviates: dose: 75.0 mg/kg/injection, schedule: Q04DX003 (ip), vehicle: saline.
Where [13] appears, read: dose: 100.0 mg/kg/injection, schedule: Q04DX003 (ip), vehicle: saline.
Where [14] appears, read: dose: 200.0 mg/kg/injection, schedule: Q04DX003 (ip), vehicle: saline.
The mark [15] stands for this setting: dose: 400.0 mg/kg/injection, schedule: Q04DX003 (ip), vehicle: saline.
The mark [16] stands for this setting: dose: 100.0 mg/kg/injection, schedule: Q04DX003 (ip), vehicle: saline with Tween-80.
[17] abbreviates: dose: 200.0 mg/kg/injection, schedule: Q04DX003 (ip), vehicle: saline with Tween-80.

For `CC1CC(O)C(=O)C2(C)C1CC1OC(=O)CC3C(C)C(=O)C(O)C2C13` (configuration not stated), the T/C under setting [1] was 100 % of control, the T/C under setting [2] was 104 % of control and the T/C under setting [3] is 99 % of control.

Take `COc1ccccc1-n1c(C)nc2c(cnn2CN2CCCCC2)c1=O`: the T/C under setting [4] is 99 % of control, the T/C under setting [5] is 115 % of control and the T/C under setting [6] was 101 % of control.

With `COc1cccc(N2CC3CC4C=CC3(C2)O4)c1` (configuration not stated), the T/C by setting is: (dose: 60.0 mg/kg/injection, schedule: Q01DX005 (ip), vehicle: Klucel (hydroxypropylcellulose) (HPC)) 98 % of control; (dose: 120.0 mg/kg/injection, schedule: Q01DX005 (ip), vehicle: Klucel (hydroxypropylcellulose) (HPC)) 100 % of control; (dose: 240.0 mg/kg/injection, schedule: Q01DX005 (ip), vehicle: Klucel (hydroxypropylcellulose) (HPC)) 97 % of control.

Take `CC1COCC(C)OC(C)COCC(C)OC(=O)COCC(=O)O1` (configuration not stated): the T/C was 104 % of control (dose: 100.0 mg/kg/injection, schedule: Q04DX003 (ip), vehicle: Klucel (hydroxypropylcellulose) (HPC)); 110 % of control (dose: 200.0 mg/kg/injection, schedule: Q04DX003 (ip), vehicle: Klucel (hydroxypropylcellulose) (HPC)); 103 % of control (dose: 400.0 mg/kg/injection, schedule: Q04DX003 (ip), vehicle: Klucel (hydroxypropylcellulose) (HPC)).

As to `Cc1ccc(C#N)c(Cl)c1`, the T/C is, setting by setting: (dose: 50.0 mg/kg/injection, schedule: Q01DX009 (ip), vehicle: saline) 100 % of control; (dose: 100.0 mg/kg/injection, schedule: Q01DX009 (ip), vehicle: saline) 100 % of control; (dose: 200.0 mg/kg/injection, schedule: Q01DX009 (ip), vehicle: saline) 106 % of control.

As to `NC(=S)N/N=C/c1[nH]c2cc(Br)c(Br)cc2c1Br`, the T/C is 91 % of control under setting [7], 91 % of control under setting [8] and 98 % of control under setting [9].

With `CC1(C)[C@H]2Cc3c(ccc4c3C(=O)OC4=O)[C@@H]1C2`, the T/C by setting is: (dose: 50.0 mg/kg/injection, schedule: Q01DX005 (ip), vehicle: Klucel + Tween-80) 107 % of control; (dose: 100.0 mg/kg/injection, schedule: Q01DX005 (ip), vehicle: Klucel + Tween-80) 112 % of control.

As for `CCCCCCC(=O)/C=C/c1cc(Cl)cc(Cl)c1`, the T/C was 95 % of control under setting [1], 91 % of control under setting [2] and 92 % of control under setting [3].

On to `CCOC(=O)Nc1nc2cc(C(=O)OC)n(C)c2s1`, for which the T/C (dose: 50.0 mg/kg/injection, schedule: Q01DX009 (ip), vehicle: saline with Tween-80) is 95 % of control; the T/C (dose: 100.0 mg/kg/injection, schedule: Q01DX009 (ip), vehicle: saline with Tween-80) was 86 % of control; the T/C (dose: 200.0 mg/kg/injection, schedule: Q01DX009 (ip), vehicle: saline with Tween-80) was 88 % of control.

Consider `C/C(=N\NC(=S)N1CCC(C)CC1)c1nccs1`, for which the T/C is 106 % of control (dose: 12.5 mg/kg/injection, schedule: Q01DX005 (ip), vehicle: saline with Tween-80); 116 % of control (dose: 25.0 mg/kg/injection, schedule: Q01DX005 (ip), vehicle: saline with Tween-80); 118 % of control under setting [1].

With `COC(=O)CCCCc1ccc(CCCC(=O)OC)c2ccccc12`, the T/C reads like this: under setting [10], 102 % of control; under setting [11], 102 % of control; (dose: 200.0 mg/kg/injection, schedule: Q01DX009 (ip), vehicle: other) 105 % of control.

As for `c1ccc(ON=C2c3ccccc3-c3ccccc32)cc1`, the T/C is 113 % of control under setting [12]; 109 % of control (dose: 125.0 mg/kg/injection, schedule: Q04DX003 (ip), vehicle: saline); 104 % of control (dose: 250.0 mg/kg/injection, schedule: Q04DX003 (ip), vehicle: saline).

Take `CN1C(=O)C2C(N(C3OC(CO)C(O)C3O)C1=O)C2(Cl)Cl` (configuration not stated): the T/C is 100 % of control under setting [12]; 100 % of control under setting [13]; 99 % of control (dose: 150.0 mg/kg/injection, schedule: Q04DX003 (ip), vehicle: saline); 99 % of control under setting [14]; 102 % of control (dose: 300.0 mg/kg/injection, schedule: Q04DX003 (ip), vehicle: saline); 99 % of control under setting [15].

For the compound `O=C1C2C[C@@H]3c4ccccc4N[C@@H]3N2C(=O)C2CCCN12` (some centres not stated), the T/C reads like this: under setting [4], 97 % of control; under setting [5], 102 % of control; under setting [6], 94 % of control.

As to `CC(C)CSC(C)C`, the T/C was 100 % of control (dose: 50.0 mg/kg/injection, schedule: Q04DX003 (ip), vehicle: saline with Tween-80); 104 % of control under setting [16]; 100 % of control under setting [17].

As to `COC(=O)[C@@H]1O[C@H]2OC=C[C@H]21`, the T/C (dose: 12.5 mg/kg/injection, schedule: Q01DX005 (ip), vehicle: saline) was 112 % of control; the T/C (dose: 25.0 mg/kg/injection, schedule: Q01DX005 (ip), vehicle: saline) was 108 % of control; the T/C (dose: 50.0 mg/kg/injection, schedule: Q01DX005 (ip), vehicle: saline) is 99 % of control and 100 % of control.

Take `FC(F)(F)c1ccc2c(c1)N(CCCCl)c1ccccc1S2`: the T/C is, setting by setting: (dose: 50.0 mg/kg/injection, schedule: Q04DX003 (ip), vehicle: saline) 94 % of control; under setting [13], 99 % of control; under setting [14], 104 % of control; under setting [15], 98 % of control.

With `CCN(CC)c1ncnc2c1ncn2Cc1ccc(C(=O)OC)cc1`, the T/C is 100 % of control under setting [1], 100 % of control under setting [2] and 94 % of control under setting [3].

On to `CN(C)C1C(O)C2Oc3c(cc(O)c4c3C(=O)c3cc5c(c(O)c3C4=O)C(NCCO)CC(C)(O)C5)C(C)(O2)C1O` (configuration not stated), for which the T/C reads like this: (dose: 6.25 mg/kg/injection, schedule: Q01DX009 (ip), vehicle: other) 104 % of control; (dose: 12.5 mg/kg/injection, schedule: Q01DX009 (ip), vehicle: other) 108 % of control; (dose: 25.0 mg/kg/injection, schedule: Q01DX009 (ip), vehicle: other) 123 % of control; under setting [10], 157 % of control; under setting [11], 157 % of control.

Take `CC(=O)Nc1ccc(C(=O)C(C)Br)cc1` (configuration not stated): the T/C (dose: 6.25 mg/kg/injection, schedule: Q01DX009 (ip), vehicle: saline with Tween-80) was 106 % of control and 117 % of control and 119 % of control; the T/C (dose: 12.5 mg/kg/injection, schedule: Q01DX009 (ip), vehicle: saline with Tween-80) was 116 % of control and 117 % of control and 124 % of control; the T/C (dose: 25.0 mg/kg/injection, schedule: Q01DX009 (ip), vehicle: saline with Tween-80) is 108 % of control and 119 % of control and 124 % of control.

On to `CCOC(=O)C1=S=C(SCCO)N(C)C1=O`, for which the T/C runs as follows: (dose: 100.0 mg/kg/injection, schedule: Q04DX002 (ip), vehicle: saline with Tween-80) 95 % of control; (dose: 200.0 mg/kg/injection, schedule: Q04DX002 (ip), vehicle: saline with Tween-80) 103 % of control; (dose: 400.0 mg/kg/injection, schedule: Q04DX002 (ip), vehicle: saline with Tween-80) 97 % of control.

For `CCOC(=O)/N=c1/nc2ccn(C)c2c(NC(=O)OCC)s1`, the T/C is 99 % of control under setting [16]; 96 % of control under setting [17]; 96 % of control (dose: 400.0 mg/kg/injection, schedule: Q04DX003 (ip), vehicle: saline with Tween-80).

Turning to `O=C1c2ccccc2C(=O)c2c1ccc(C1C(=O)c3ccccc3C1=O)c2-c1c(C2C(=O)c3ccccc3C2=O)ccc2c1C(=O)c1ccccc1C2=O`, the T/C reads like this: (dose: 60.0 mg/kg/injection, schedule: Q01DX005 (ip), vehicle: saline with Tween-80) 103 % of control; (dose: 120.0 mg/kg/injection, schedule: Q01DX005 (ip), vehicle: saline with Tween-80) 99 % of control; (dose: 240.0 mg/kg/injection, schedule: Q01DX005 (ip), vehicle: saline with Tween-80) 97 % of control.

Regarding `CC(=O)OC1C(=C(Br)Br)C(COC(=O)c2ccccc2)OC1n1cnc2c(NC(=O)c3ccccc3)ncnc21` (configuration not stated), the T/C is 98 % of control under setting [7], 90 % of control under setting [8] and 92 % of control under setting [9].

The values are drawn from PubChem BioAssay AID330 (DTP/NCI, 2004).
